Results: patent US7932262B2 (Novartis AG, priority 2006, dated 2011)
pEC50, pIC50: −log10 of the molar value. Like-named read-outs stand apart in the source and are kept apart here.

Experiments:
[1] = biological target: T1, PDK1 kinase (Homo sapiens, UniProt O15530); assay: PDK1 Kinase Alpha Screen Assay; type: biochemical
T1 sequence (O15530 1-556): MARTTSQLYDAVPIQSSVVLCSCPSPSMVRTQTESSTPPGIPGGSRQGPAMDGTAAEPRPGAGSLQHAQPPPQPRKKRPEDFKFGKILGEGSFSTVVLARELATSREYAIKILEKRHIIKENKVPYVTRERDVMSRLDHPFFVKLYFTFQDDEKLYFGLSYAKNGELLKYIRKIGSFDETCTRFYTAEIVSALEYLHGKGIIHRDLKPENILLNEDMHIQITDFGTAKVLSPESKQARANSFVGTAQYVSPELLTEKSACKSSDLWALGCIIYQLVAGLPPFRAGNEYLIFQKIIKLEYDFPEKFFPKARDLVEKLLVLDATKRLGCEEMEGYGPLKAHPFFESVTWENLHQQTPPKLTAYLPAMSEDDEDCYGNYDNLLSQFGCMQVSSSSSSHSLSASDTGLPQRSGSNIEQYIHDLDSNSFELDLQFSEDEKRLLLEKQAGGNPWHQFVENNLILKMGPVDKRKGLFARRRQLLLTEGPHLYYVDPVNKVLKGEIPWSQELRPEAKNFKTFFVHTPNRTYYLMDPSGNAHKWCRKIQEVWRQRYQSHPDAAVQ
How it was run: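 PDK1 phosphorylated 50 nM biotinylated PDK1-4 peptide with 10 uM ATP in Tris pH 7.5, 10 mM MgCl2, 2 mM DTT, 2.5% DMSO for 3-18 hours. After EDTA stop, phosphopeptide was detected by AlphaScreen using phospho-(Ser/Thr) PKA substrate antibody with protein A/streptavidin beads, read after overnight incubation.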

[2] = tested on: PC-3 cells; assay: Cell Proliferation Assay (Cell Titer Glo), PC-3 cell line; type: cell-based; conditions: read-out: CPEC50 PC3
How it was run: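 PC-3 cells, 1000 cells/well, left to adhere 3-5 h, then exposed for 3 days at 37° C to compounds as 1:3 serial dilutions from 500× DMSO stocks diluted in growth medium. Medium then replaced with fresh medium and viability read by Cell Titer Glo luminescence.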

[3] = head of the second part of Table 4: BV11261, read-out: PDK1 BV11261

SMILES	pIC50 ([1]; read-out: PDK1 IC50)	pEC50 ([2]; Homo sapiens, PC-3, PC3 cells)	pEC50 ([2]; PC3 cells)	pIC50 [1, 3]
c1cc(-c2ccc(NCCN3CCCC3)nc2)c2nc(Nc3ccc(N4CCOCC4)cc3)ncc2c1 [Compound 996, N-(4-morpholinophenyl)-8-(6-(2-(pyrrolidin-1-yl)ethylamino)pyridin-3-yl)quinazolin-2-amine]	> 5.30	> 5.30		
CN1CCN(c2ccc(-c3cccc4cnc(Nc5ccc(F)cc5)nc34)cn2)CC1 [Compound 999, N-(4-fluorophenyl)-8-(6-(4-methylpiperazin-1-yl)pyridin-3-yl)quinazolin-2-amine]	> 5.30	> 5.30		
OCCc1ccc(Nc2ncc3cccc(-c4ccc(NCCN5CCCC5)nc4)c3n2)cc1 [Compound 1019, 2-(4-(8-(6-(2-(pyrrolidin-1-yl)elhylamino)pyridin-3-yl)quinazolin-2-ylamino)phenyl)ethanol]	> 5.30	> 5.30		
c1cc(Nc2ncc3cccc(-c4ccc(NCCN5CCCC5)nc4)c3n2)cc(N2CCOCC2)c1 [Compound 1022, N-(3-morpholinophenyl)-8-(6-(2-(pyrrolidin-1-yl)ethylamino)pyridin-3-yl)quinazolin-2-amine]	> 5.30	> 5.30		
CC(C)Cn1cc(-c2ccc3cnc(Nc4ccc(N5CCN(C)CC5)cc4)nc3c2)cn1 [Compound 1025, 7-(1-isobutyl-1H-pyrazol-4-yl)-N-(4-(4-methylpiperazin-1-yl)phenyl)quinazolin-2-amine]	> 5.30	> 5.30		
Cc1ccc(Nc2ncc3ccc(O)c(C4CCN(C(C)C)CC4)c3n2)cc1NS(C)(=O)=O [Compound 1026, N-(5-(7-hydroxy-8-(1-isopropylpiperidin-4-yl)quinazolin-2-ylamino)-2-methylphenyl)methanesulfonamide]	> 5.30	> 5.30		
CN1CCN(c2ccc(-c3cccc4cnc(Nc5ccc(S(=O)(=O)N6CCOCC6)cc5)nc34)cn2)CC1 [Compound 1029, 8-(6-(4-methylpiperazin-1-yl)pyridin-3-yl)-N-(4-(morpholinosulfonyl)phenyl)quinazolin-2-amine]	> 5.30	> 5.30		
Cc1cc(Nc2ncc3ccc(O)c(C4CCN(C(C)C)CC4)c3n2)ccc1F [Compound 1030, 2-(4-fluoro-3-methylphenylamino)-8-(1-isopropylpipenidin-4-yl)quinazolin-7-ol]	> 5.30	5.00 to 5.30		
C#Cc1cc(OC2CCCNCC2)c2nc(Nc3ccc(N4CCOCC4)cc3)ncc2c1 (stereo not shown) [Compound 1031, 8-(azepan-4-yloxy)-6-ethynyl-N-(4-morpholinophenyl)quinazolin-2-amine]		> 5.30		> 5.30
C#Cc1cc(OC2CCNCC2)c2nc(Nc3ccc(C(=O)N4CCOCC4)cc3)ncc2c1Cl [Compound 1032, (4-(5-chloro-6-ethynyl-8-(piperidin-4-yloxy)quinazolin-2-ylamino)phenyl)(morpholino)methanone]		> 5.30		> 5.30
COc1c(-c2cnn(C)c2)cc(Cl)c2cnc(Nc3ccc(C(=O)N4CCOCC4)cc3)nc12 [Compound 1033, (4-(5-chloro-8-methoxy-7-(1-methyl-1H-pyrazol-4-yl)quinazolin-2-ylamino)phenyl)(morpholino)methanone]		> 5.30		> 5.30
COc1c(-c2cnn(C)c2)cc(Cl)c2cnc(Nc3ccc(C(=O)NC(C)C)cc3)nc12 [Compound 1034, 4-(5-chloro-8-methoxy-7-(1-methyl-1H-pyrazol-4-yl)quinazolin-2-ylamino)-N-isopropylbenzamide]		> 5.30		> 5.30
COc1c(-c2cnn(C)c2)cc(Cl)c2cnc(Nc3ccc(N4CCOCC4)cc3)nc12 [Compound 1035, 5-chloro-8-methoxy-7-(1-methyl-1H-pyrazol-4-yl)-N-(4-morpholinophenyl)quinazolin-2-amine]		> 5.30		> 5.30
COc1c(-c2cnn(C)c2)cc(Cl)c2cnc(Nc3cccc(N4CCOCC4)c3)nc12 [Compound 1036, 5-chloro-8-methoxy-7-(1-methyl-1H-pyrazol-4-yl)-N-(3-morpholinophenyl)quinazolin-2-amine]		> 5.30		> 5.30
COc1c(-c2cnn(C)c2)cc(Cl)c2cnc(Nc3cc(CN(C)C)cc(NC(C)=O)c3)nc12 [Compound 1037, N-(3-(5-chloro-8-methoxy-7-(1-methyl-1H-pyrazol-4-yl)quinazolin-2-ylamino)-5-((dimethylamino)methyl)phenyl)acetamide]		> 5.30		> 5.30

Other lines, results leading:

pIC50 ([1]; read-out: PDK1 IC50)	pEC50 ([2]; Homo sapiens, PC-3, PC3 cells)	pEC50 ([2]; PC3 cells)	pIC50 [1, 3]	SMILES
> 5.30	> 5.30			Fc1ccc(Nc2ncc3cccc(-c4ccc(NCCN5CCCC5)nc4)c3n2)cc1 [Compound 994, N-(4-fluorophenyl)-8-(6-(2-(pyrrolidin-1-yl)ethylamino)pyridin-3-yl)quinazolin-2-amine]
> 5.30		> 5.30		Clc1ccc(Nc2ncc3cccc(-c4ccc(NCCN5CCCC5)nc4)c3n2)cc1 [Compound 995, N-(4-chorophenyl)-8-(6-(2-(pyrrolidin-1-yl)ethylamino)pyridin-3-yl)quinazolin-2-amine]
> 5.30	> 5.30			CNS(=O)(=O)Cc1ccc(Nc2ncc3cccc(-c4ccc(NCCN5CCCC5)nc4)c3n2)cc1 [Compound 998, N-methyl-1-(4-(8-(6-(2-(pyrrolidin-1-yl)ethylamino)pyridin-3-yl)quinazolin-2-ylamino)phenyl)methanesulfonamide]
> 5.30	> 5.30			O=c1[nH]c2ccc(Nc3ncc4cccc(-c5ccc(NCCN6CCCC6)nc5)c4n3)cc2[nH]1 [Compound 1000, 5-(8-(6-(2-(pyrrolidin-1-yl)ethylamino)pyridin-3-yl)quinazolin-2-ylamino)-1H-benzo[d]imidazol-2(3H)-one]
> 5.30	> 5.30			Cc1ccc(Nc2ncc3cccc(-c4ccc(NCCN5CCCC5)nc4)c3n2)cc1NS(C)(=O)=O [Compound 1001, N-(2-methyl-5-(8-(6-(2-(pyrrolidin-1-yl)ethylamino)pyridin-3-yl)quinazolin-2-ylamino)phenyl)methanesulfonamide]
> 5.30	> 5.30			CC(C)NS(=O)(=O)c1ccc(Nc2ncc3cccc(-c4ccc(NCCN5CCCC5)nc4)c3n2)cc1 [Compound 1016, N-isopropyl-4-(8-(6-(2-(pyrrolidin-1-yl)ethylamino)pyridin-3-yl)quinazolin-2-ylamino)benzenesulfonamide]
> 5.30	> 5.30			Fc1ccc(Nc2ncc3cccc(-c4ccc(NCCN5CCCC5)nc4)c3n2)c(F)c1 [Compound 1017, N-(2,4-difluorophenyl)-8-(6-(2-(pyrrolidin-1-yl)ethylamino)pyridin-3-yl)quinazolin-2-amine]
> 5.30	> 5.30			Fc1ccc(Nc2ncc3cccc(-c4ccc(NCCN5CCCC5)nc4)c3n2)cc1F [Compound 1018, N-(3,4-difluorophenyl)-8-(6-(2-(pyrrolidin-1-yl)ethylamino)pyridin-3-yl)quinazolin-2-amine]
> 5.30	> 5.30			Fc1cccc(Nc2ncc3cccc(-c4ccc(NCCN5CCCC5)nc4)c3n2)c1 [Compound 1020, N-(3-fluorophenyl)-8-(6-(2-(pyrrolidin-1-yl)ethylamino)pyridin-3-yl)quinazolin-2-amine]
> 5.30	> 5.30			Cn1cnnc1-c1cccc(Nc2ncc3cccc(-c4ccc(NCCN5CCCC5)nc4)c3n2)c1 [Compound 1021, N-(3-(4-methyl-4H-1,2,4-triazol-3-yl)phenyl)-8-(6-(2-(pyrrolidin-1-yl)ethylamino)pyridin-3-yl)quinazolin-2-amine]
> 5.30	> 5.30			FC(F)(F)c1cccc(Nc2ncc3cccc(-c4ccc(NCCN5CCCC5)nc4)c3n2)c1 [Compound 1023, 8-(6-(2-(pyrrolidin-1-yl)ethylamino)pyridin-3-yl)-N-(3-(trifluoromethyl)phenyl)quinazolin-2-amine]
> 5.30	> 5.30			CC(=O)Nc1ccc(Nc2ncc3cccc(-c4ccc(NCCN5CCCC5)nc4)c3n2)cc1Cl [Compound 1024, N-(2-chloro-4-(8-(6-(2-(pyrrolidin-1-yl)ethylamino)pyridin-3-yl)quinazolin-2-ylamino)phenyl)acetamide]
> 5.30	> 5.30			CC(=O)Nc1ccc(Nc2ncc3cccc(-c4ccc(NCCN5CCCC5)nc4)c3n2)cc1C [Compound 1027, N-(2-methyl-4-(8-(6-(2-(pyrrolidin-1-yl)ethylamino)pyridin-3-yl)quinazolin-2-ylamino)phenyl)acetamide]
> 5.30	5.00 to 5.30			CS(=O)(=O)c1ccc(Nc2ncc3cccc(-c4ccc(NCCN5CCCC5)nc4)c3n2)cc1 [Compound 1028, N-(4-(methylsulfonyl)phenyl)-8-(6-(2-(pyrrolidin-1-yl)ethylamino)pyridin-3-yl)quinazolin-2-amine]
